Measured values reported in patent US12692238B2, “Substituted pyridazinone herbicides” (FMC CORPORATION, priority 2020, dated 2026).

How the values were obtained:
Type in all cases: in vivo
[1] = system: blackgrass (Alopecurus myosuroides); assay: Test A postemergence, blackgrass; conditions: 10 days
In short: (§1)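 Visual injury ratings on a 0 to 100 scale (0 no effect, 100 complete control) were made 10 days after treatment, relative to untreated controls. Test chemicals in a surfactant-containing non-phytotoxic solvent were applied to soil at planting or to one- to two-leaf plants 2 to 10 cm tall.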

[2] = system: palmer amaranth (pigweed, palmer, Amaranthus palmeri); assay: Test A postemergence, palmer amaranth; conditions: 10 days
Source text: (§2) Seeds of plant species selected from barnyardgrass (Echinochloa crus-galli), blackgrass (Alopecurus myosuroides), corn (Zea mays), foxtail, giant (giant foxtail, Setaria faberi), foxtail, green (green foxtail, Setaria viridis), goosegrass (Eleusine indica), kochia (Bassia scoparia), oat, wild (wild oat, Avena fatua), palmer amaranth (pigweed, palmer, Amaranthus palmeri), redroot pigweed (Amaranthus retroflexus), ragweed (common ragweed, Ambrosia artemisiifolia), ryegrass, Italian (Italian ryegrass, Lolium multiflorum), and soybean (Glycine max) were planted into a blend of loam soil and sand and treated preemergence with a directed soil spray using test chemicals formulated in a non-phytotoxic solvent mixture which included a surfactant.
(§3) At the same time, plants selected from these crop and weed species and also wheat (Triticum aestivum), galium (catchweed bedstraw, Galium aparine) and horseweed (Erigeron canadensis) were planted in pots containing the same blend of loam soil and sand and treated with postemergence applications of test chemicals formulated in the same manner. Plants ranged in height from 2 to 10 cm and were in the one- to two-leaf stage for the postemergence treatment. Treated plants and untreated controls were maintained in a greenhouse for 10 days, after which time all treated plants were compared to untreated controls and visually evaluated for injury. Plant response ratings, summarized in Table A, are based on a 0 to 100 scale where 0 is no effect and 100 is complete control. A dash (-) response means no test result.

[3] = system: ragweed (common ragweed, Ambrosia artemisiifolia); assay: Test A postemergence, ragweed; conditions: 10 days
In short: as §1

[4] = system: goosegrass (Eleusine indica); assay: Test A postemergence, goosegrass; conditions: 10 days
Source text: as §2, §3

kochia (Bassia scoparia) [5] = assay: Test A postemergence, kochia; conditions: 10 days
In short: as §1

[6] = system: galium (catchweed bedstraw, Galium aparine); assay: Test A postemergence, galium; conditions: 10 days
In short: as §1

[7] = system: oat, wild (wild oat, Avena fatua); assay: Test A postemergence, oat, wild; conditions: 10 days
Source text: as §2, §3

soybean (Glycine max) [8] = assay: Test A postemergence, soybean; conditions: 10 days
Source text: as §2, §3

[9] = system: foxtail, giant (giant foxtail, Setaria faberi); assay: Test A postemergence, foxtail, giant; conditions: 10 days
In short: as §1

corn (Zea mays) [10] = assay: Test A postemergence, corn; conditions: 10 days
In short: as §1

[11] = system: ducksalad (Heteranthera limosa); assay: Test B flooded paddy test, ducksalad; conditions: 250 g ai/ha, Flood; visually evaluated after 10 to 14 days
In short: (§4)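 Compound is introduced straight into paddy water on flooded pots (3 cm) containing 2-leaf-stage plants. Controls are run alongside, and all plants are rated by eye on a 0–100 scale after 10 to 14 days under glass.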

corn (Zea mays) [12] = assay: Test A preemergence, corn; conditions: 0 to 100 scale, 10 days
Source text: as §2, §3

[13] = system: sedge, umbrella (small-flower umbrella sedge, Cyperus difformis); assay: Test B flooded paddy test, sedge, umbrella; conditions: 250 g ai/ha, Flood; visually evaluated after 10 to 14 days
In short: as §4

[14] = system: palmer amaranth (pigweed, palmer, Amaranthus palmeri); assay: Test A preemergence, palmer amaranth; conditions: 0 to 100 scale, 10 days
Source text: as §2, §3

[15] = system: ryegrass, Italian (Italian ryegrass, Lolium multiflorum); assay: Test A postemergence, ryegrass, Italian; conditions: 10 days
In short: as §1

[16] = system: ryegrass, Italian (Italian ryegrass, Lolium multiflorum); assay: Test A preemergence, ryegrass, Italian; conditions: 0 to 100 scale, 10 days
In short: as §1

[17] = system: wheat (Triticum aestivum); assay: Test A postemergence, wheat; conditions: 10 days
In short: as §1

[18] = system: barnyardgrass (Echinochloa crus-galli); assay: Test B flooded paddy test, barnyardgrass; conditions: 250 g ai/ha, Flood; visually evaluated after 10 to 14 days
In short: as §4

[19] = system: blackgrass (Alopecurus myosuroides); assay: Test A preemergence, blackgrass; conditions: 0 to 100 scale, 10 days
Source text: as §2, §3

soybean (Glycine max) [20] = assay: Test A preemergence, soybean; conditions: 0 to 100 scale, 10 days
Source text: as §2, §3

[21] = system: goosegrass (Eleusine indica); assay: Test A preemergence, goosegrass; conditions: 0 to 100 scale, 10 days
Source text: as §2, §3

kochia (Bassia scoparia) [22] = assay: Test A preemergence, kochia; conditions: 0 to 100 scale, 10 days
In short: as §1

[23] = system: horseweed (Erigeron canadensis); assay: Test A postemergence, horseweed; conditions: 10 days
Source text: as §2, §3

[24] = system: wheat (Triticum aestivum); assay: Test A preemergence, wheat; conditions: 125 g ai/ha, 0 to 100 scale, 10 days
[25] = system: ragweed (common ragweed, Ambrosia artemisiifolia); assay: Test A preemergence, ragweed; conditions: 0 to 100 scale, 10 days
In short: as §1

[26] = system: foxtail, giant (giant foxtail, Setaria faberi); assay: Test A preemergence, foxtail, giant; conditions: 0 to 100 scale, 10 days
In short: as §1

rice (Oryza sativa) = assay: Test B flooded paddy test, rice; conditions: 250 g ai/ha, Flood; visually evaluated after 10 to 14 days
In short: as §4

[27] = system: oat, wild (wild oat, Avena fatua); assay: Test A preemergence, oat, wild; conditions: 0 to 100 scale, 10 days
Source text: as §2, §3

[28] = 31 g ai/ha, postemergence, 0 to 100 scale (0 no effect, 100 complete control)
[29] = Postemergence, 125 g ai/ha, 0 to 100 scale

Cn1nc(Cl)c(OCOC(=O)C(C)(C)C)c(-c2c3ccccc3cc3ccccc23)c1=O [Compound 19]
Plant response rating, Blackgrass [1, 28]: 0
Plant response rating, Blackgrass [1, 29]: 0
Plant response rating, Pigweed, Palmer [2, 28]: 100
Plant response rating, Pigweed, Palmer [2, 29]: 100
Plant response rating, Ragweed [3, 28]: 100
Plant response rating, Ragweed [3, 29]: 100
Plant response rating, Goosegrass [4, 28]: 10
Plant response rating, Goosegrass [4, 29]: 10
Plant response rating, Kochia (kochia (Bassia scoparia) [5]; [28]): 40
Plant response rating, Kochia (kochia (Bassia scoparia) [5]; [29]): 80
Plant response rating, Galium [6, 28]: 100
Plant response rating, Galium [6, 29]: 100
Plant response rating, Oat, Wild [7, 28]: 10
Plant response rating, Oat, Wild [7, 29]: 10
Plant response rating, Soybean (soybean (Glycine max) [8]; [28]): 0
Plant response rating, Soybean (soybean (Glycine max) [8]; [29]): 30
Plant response rating, Foxtail, Giant [9, 28]: 10
Plant response rating, Foxtail, Giant [9, 29]: 50
Plant response rating, Corn (corn (Zea mays) [10]; [28]): 10
Plant response rating, Corn (corn (Zea mays) [10]; [29]): 20
Plant response rating, Ducksalad (0 to 100 scale where 0 is no effect and 100 is complete control) [11]: 100
Plant response rating, Corn (corn (Zea mays) [12]; 31 g ai/ha): 0
Plant response rating, Corn (corn (Zea mays) [12]; 125 g ai/ha): 0
Plant response rating, Sedge, Umbrella (0 to 100 scale where 0 is no effect and 100 is complete control) [13]: 85
Plant response rating, Pigweed, Palmer ([14]; 31 g ai/ha): 90
Plant response rating, Pigweed, Palmer ([14]; 125 g ai/ha): 100
Plant response rating, Ryegrass, Italian [15, 28]: 0
Plant response rating, Ryegrass, Italian [15, 29]: 10
Plant response rating, Ryegrass, Italian ([16]; 31 g ai/ha): 0
Plant response rating, Ryegrass, Italian ([16]; 125 g ai/ha): 80
Plant response rating, Wheat [17, 28]: 0
Plant response rating, Wheat [17, 29]: 0
Plant response rating, Barnyardgrass (0 to 100 scale where 0 is no effect and 100 is complete control) [18]: 35
Plant response rating, Blackgrass ([19]; 31 g ai/ha): 0
Plant response rating, Blackgrass ([19]; 125 g ai/ha): 10
Plant response rating, Soybean (soybean (Glycine max) [20]; 31 g ai/ha): 0
Plant response rating, Soybean (soybean (Glycine max) [20]; 125 g ai/ha): 0
Plant response rating, Goosegrass ([21]; 31 g ai/ha): 0
Plant response rating, Goosegrass ([21]; 125 g ai/ha): 30
Plant response rating, Kochia (kochia (Bassia scoparia) [22]; 31 g ai/ha): 0
Plant response rating, Kochia (kochia (Bassia scoparia) [22]; 125 g ai/ha): 80
Plant response rating, Horseweed [23, 28]: 100
Plant response rating, Horseweed [23, 29]: 90
Plant response rating, Wheat [24]: 0
Plant response rating, Ragweed ([25]; 31 g ai/ha): 80
Plant response rating, Ragweed ([25]; 125 g ai/ha): 80
Plant response rating, Foxtail, Giant ([26]; 31 g ai/ha): 10
Plant response rating, Foxtail, Giant ([26]; 125 g ai/ha): 70
Plant response rating, Rice (0 to 100 scale where 0 is no effect and 100 is complete control) (rice (Oryza sativa)): 0
Plant response rating, Oat, Wild ([27]; 31 g ai/ha): 0
Plant response rating, Oat, Wild ([27]; 125 g ai/ha): 0

Cc1ccc2cc3ccc(C)cc3c(-c3c(OCOC(=O)N(C)C)c(Cl)nn(C)c3=O)c2c1 [Compound 18]
Plant response rating, Blackgrass [1, 28]: 0
Plant response rating, Blackgrass [1, 29]: 0
Plant response rating, Pigweed, Palmer [2, 28]: 30
Plant response rating, Pigweed, Palmer [2, 29]: 50
Plant response rating, Ragweed [3, 28]: 30
Plant response rating, Ragweed [3, 29]: 100
Plant response rating, Goosegrass [4, 28]: 0
Plant response rating, Goosegrass [4, 29]: 0
Plant response rating, Kochia (kochia (Bassia scoparia) [5]; [28]): 40
Plant response rating, Kochia (kochia (Bassia scoparia) [5]; [29]): 70
Plant response rating, Galium [6, 28]: 0
Plant response rating, Galium [6, 29]: 30
Plant response rating, Oat, Wild [7, 28]: 0
Plant response rating, Oat, Wild [7, 29]: 0
Plant response rating, Soybean (soybean (Glycine max) [8]; [28]): 0
Plant response rating, Soybean (soybean (Glycine max) [8]; [29]): 20
Plant response rating, Foxtail, Giant [9, 28]: 0
Plant response rating, Foxtail, Giant [9, 29]: 0
Plant response rating, Corn (corn (Zea mays) [10]; [28]): 0
Plant response rating, Corn (corn (Zea mays) [10]; [29]): 0
Plant response rating, Ducksalad (0 to 100 scale where 0 is no effect and 100 is complete control) [11]: 0
Plant response rating, Corn (corn (Zea mays) [12]; 31 g ai/ha): 0
Plant response rating, Corn (corn (Zea mays) [12]; 125 g ai/ha): 0
Plant response rating, Sedge, Umbrella (0 to 100 scale where 0 is no effect and 100 is complete control) [13]: 15
Plant response rating, Pigweed, Palmer ([14]; 31 g ai/ha): 0
Plant response rating, Pigweed, Palmer ([14]; 125 g ai/ha): 40
Plant response rating, Ryegrass, Italian [15, 28]: 0
Plant response rating, Ryegrass, Italian [15, 29]: 0
Plant response rating, Ryegrass, Italian ([16]; 31 g ai/ha): 0
Plant response rating, Ryegrass, Italian ([16]; 125 g ai/ha): 0
Plant response rating, Wheat [17, 28]: 0
Plant response rating, Wheat [17, 29]: 0
Plant response rating, Barnyardgrass (0 to 100 scale where 0 is no effect and 100 is complete control) [18]: 0
Plant response rating, Blackgrass ([19]; 31 g ai/ha): 0
Plant response rating, Blackgrass ([19]; 125 g ai/ha): 0
Plant response rating, Soybean (soybean (Glycine max) [20]; 31 g ai/ha): 0
Plant response rating, Soybean (soybean (Glycine max) [20]; 125 g ai/ha): 0
Plant response rating, Goosegrass ([21]; 31 g ai/ha): 0
Plant response rating, Goosegrass ([21]; 125 g ai/ha): 0
Plant response rating, Kochia (kochia (Bassia scoparia) [22]; 31 g ai/ha): 0
Plant response rating, Kochia (kochia (Bassia scoparia) [22]; 125 g ai/ha): 0
Plant response rating, Horseweed [23, 29]: 20
Plant response rating, Wheat [24]: 0
Plant response rating, Ragweed ([25]; 31 g ai/ha): 0
Plant response rating, Ragweed ([25]; 125 g ai/ha): 0
Plant response rating, Foxtail, Giant ([26]; 31 g ai/ha): 0
Plant response rating, Foxtail, Giant ([26]; 125 g ai/ha): 0
Plant response rating, Rice (0 to 100 scale where 0 is no effect and 100 is complete control) (rice (Oryza sativa)): 0
Plant response rating, Oat, Wild ([27]; 31 g ai/ha): 0
Plant response rating, Oat, Wild ([27]; 125 g ai/ha): 0
